Test results reported in US8637518B2, “Pyridazinone derivatives” (MERCK PATENT GmbH, priority 2008, dated 2014).
pIC50: −log10 of the molar value.

Assays:
Met kinase = molecular target: T1, Met kinase (Homo sapiens, UniProt P08581); experiment: Met kinase inhibition, enzyme assay (flashplate method); type: biochemical
T1 construct: 6His (N); purchased Upstate 14-526; host or cells: Sf21 insect cells (S. frugiperda), baculovirus
Text: According to the manufacturer's data (Met, active, upstate, catalogue No. 14-526), Met kinase is expressed for the purposes of protein production in insect cells (Sf21; S. frugiperda) and subsequent affinity-chromatographic purification as “N-terminal 6His-tagged” recombinant human protein in a baculovirus expression vector.
The test plates used are 96-well Flashplate® microtitre plates from Perkin Elmer (Cat. No. SMP200). The components of the kinase reaction described below are pipetted into the assay plate. The Met kinase and the substrate poly Ala-Glu-Lys-Tyr, (pAGLT, 6:2:5:1), are incubated for 3 hrs at room temperature with radioactively labelled ^33P-ATP in the presence and absence of test substances in a total volume of 100 μl. The reaction is terminated using 150 μl of a 60 mM EDTA solution. After incubation for a further 30 min at room temperature, the supernatants are filtered off with suction, and the wells are washed three times with 200 μl of 0.9% NaCl solution each time. The measurement of the bound radioactivity is carried out by means of a scintillation measuring instrument (Topcount NXT, Perkin-Elmer).
The full value used is the inhibitor-free kinase reaction. This should be approximately in the range 6000-9000 cpm. The pharmacological zero value used is staurosporin in a final concentration of […]. The inhibitory values ([…]) are determined using the RS1_MTS program.
Kinase reaction conditions per well:
• 30 μl of assay buffer • 10 μl of substance to be tested in assay buffer with 10% of DMSO • 10 μl of ATP (final concentration 1 μM cold, 0.35 μCi of ^33P-ATP) • 50 μl of Met kinase/substrate mixture in assay buffer; • (10 ng of enzyme/well, 50 ng of pAGLT/well)
Solutions used: • Assay buffer:
50 mM HEPES • 3 mM magnesium chloride • 3 μM sodium orthovanadate • 3 mM manganese(II) chloride • 1 mM dithiothreitol (DTT)
pH=7.5 (to be set using sodium hydroxide) • Stop solution:
60 mM Titriplex III (EDTA) • ^33P-ATP: Perkin-Elmer; • Met kinase: Upstate, Cat. No. 14-526, Stock 1 μg/10 μl; spec. activity 954 U/mg; • Poly-Ala-Glu-Lys-Tyr, 6:2:5:1: Sigma Cat. No. P1152 In-vivo tests

TPR-Met/NIH3T3 cells = experiment: In-vivo tests: tumour volume in mice injected subcutaneously with TPR-Met/NIH3T3 cells; conditions: female Balb/C mice, subcutaneous TPR-Met/NIH3T3 tumours, 200 mg/kg daily by gastric tube, 9 days
Experimental: Experimental procedure: Female Balb/C mice (breeder: Charles River Wiga) were 5 weeks old on arrival. They were acclimatised to our keeping conditions for 7 days. Each mouse was subsequently injected subcutaneously in the pelvic area with 4 million TPR-Met/NIH3T3 cells in 100 μl of PBS (without Ca++ and Mg++). […] 100 μl of vehicle (0.25% methylcellulose/100 mM acetate buffer, pH 5.5) were administered daily to the control group, and 200 mg/kg of “A56” or “A91” dissolved in the vehicle (volume likewise 100 μl/animal) were administered daily to the treatment groups, in each case by gastric tube.
Measurement of the tumour volume: The length (L) and breadth (B) were measured using a Vernier calliper, and the tumour volume was calculated from the formula L×B×B/2.
Keeping conditions: 4 or 5 animals per cage, feeding with commercial mouse food (Sniff).

T1 sequence (P08581 974-1390 limits assumed): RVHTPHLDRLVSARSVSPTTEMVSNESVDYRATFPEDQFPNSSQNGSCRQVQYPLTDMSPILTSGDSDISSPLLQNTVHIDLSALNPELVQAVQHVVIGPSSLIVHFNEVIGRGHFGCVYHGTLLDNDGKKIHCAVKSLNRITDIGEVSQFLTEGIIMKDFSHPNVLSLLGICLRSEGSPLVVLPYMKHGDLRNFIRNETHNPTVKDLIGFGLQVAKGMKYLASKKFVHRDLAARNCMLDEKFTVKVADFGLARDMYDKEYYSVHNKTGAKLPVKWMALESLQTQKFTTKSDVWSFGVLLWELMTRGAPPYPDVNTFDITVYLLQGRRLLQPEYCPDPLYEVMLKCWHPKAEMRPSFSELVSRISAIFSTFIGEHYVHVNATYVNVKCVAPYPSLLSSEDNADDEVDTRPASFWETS

| melting point [°C] | pIC50 (Met kinase) | Structure (SMILES) | antitumoural action (TPR-Met/NIH3T3 cells) |
| --- | --- | --- | --- |
| 242 to 243 |  | CNC(=O)COc1cnc(-c2cccc(Cn3nc(-c4cnn(C)c4)ccc3=O)c2)nc1 [Compound A27, N-Methyl-2-(2-{3-[3-(1-methyl-1H-pyrazol-4-yl)-6-oxo-6H-pyridazin-1-ylmethyl]phenyl}pyrimidin-5-yloxy)acetamide] |  |
|  | 6.00 to 8.00 | Cn1cc(-c2ccc(=O)n(Cc3cccc(-c4ncc(OC[C@H]5C[C@@H]5CN)cn4)c3)n2)cn1 [Compound A18, 2-{3-[5-((1S,2S)-2-Aminomethylcyclopropylmethoxy)pyrimidin-2-yl]benzyl}-6-(1-methyl-1H-pyrazol-4-yl)-2H-pyridazin-3-one] | significant antitumoural action |
|  |  | Cn1cc(-c2ccc(=O)n(Cc3cccc(-c4ncc(OC5CCC(O)C5)cn4)c3)n2)cn1 (stereo not shown) [Compound A22, 2-{3-[5-(3-hydroxycyclopentyloxy)pyrimidin-2-yl]benzyl}-6-(1-methyl-1H-pyrazol-4-yl)-2H-pyridazin-3-one] | significant antitumoural action |
